EC50 data for one compound are collected here from publication PMC4912613, “A broad analysis of resistance development in the malaria parasite” (Nature Communications, 2016).

pEC50: −log10 of the molar value. Read-outs that look alike come from different tables or passages of the source.

Experiment [1] deals with ATQ-R4 (cytb M133I and L144S, parent 3D7). Put plainly: Cross-resistance EC50 assay, ATQ-R4. The note with it: Plasmodium falciparum, 3D7; SYBR green 72 hour assay; asynchronized parasites; 96-well or 1536-well format; ATQ-R4. The experiment is classed as cell-based, Plasmodium falciparum. The method, boiled down:
(§1)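 Comparisons were made strictly within matched assay conditions, with 3D7 standing in where no parent existed. Inhibition came from ³H-hypoxanthine (48 h, 2.0% haematocrit) or SYBR Green (72 h, 4% haematocrit) readouts, three repeats, Grubbs' outlier removal for the latter.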

Experiment [2] has as its system CYTb-G131S (cytb G131S, parent Dd2). Nature of the experiment: Cross-resistance EC50 assay, CYTb-G131S. The experiment is classed as cell-based, Plasmodium falciparum. The note with it: Plasmodium falciparum; SYBR green 72 hour assay; synchronized parasites; 384-well format; strain CYTb:G131S (Dd2 parent). In a few lines: as §1
Experiment [3] has as its system GNF156R (PfCARL L830V, S1076I and M81I, parent Dd2). Nature of the experiment: Cross-resistance EC50 assay, GNF156R. It counts as cell-based. The note with it: Plasmodium falciparum, SYBR green 72 hour assay, asynchronized parasites, 96-well or 1536-well format. In a few lines:
as §1

The next experiment concerns 3D7. Nature of the experiment: Cross-resistance EC50 assay, 3D7 parent / sensitive strain. The note with it: Plasmodium falciparum; for pEC50: synchronized parasites. The experiment is classed as cell-based. In a few lines: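 P. falciparum asexual blood-stage proliferation, parent/sensitive strain of each resistant clone; 48-h assay with rings (0.5% parasitemia, 2.0% haematocrit) in RPMI-1640/5% AlbuMAX, ^3H-hypoxanthine added at 24 h, normalized to no-drug and 2 μM artesunate controls; alternatively 72-h SYBR Green assay (0.3% parasitemia, 4% haematocrit). EC50s from triplicate fits.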

As usually defined, the EC50 is the concentration at which the effect is half-maximal. Usually pEC50 stands for −log10 of the EC50, conventionally taken in molar units. Take `Cc1ccc(Cn2c(N3CCC(C(=O)NCc4cccs4)CC3)nc3ccccc32)cc1` [MMV007564]: the EC50 in experiment [1] amounted to 1.05 µM; in experiment [3], 1.62 µM; with 3D7 (SYBR green 72 hour assay, asynchronized parasites, 96-well or 1536-well format, 3D7 parent, read-out: 3D7 (PARENT) EC50 (µM) Average EC50), 0.867 µM. Besides, the pEC50 in experiment [2] is 5.89; in the experiment with 3D7 (SYBR green 72 hour assay, 384-well format, strain 3D7 (parent), read-out: 3D7 (PARENT) Average EC50), 6.17; with 3D7 (hypoxanthine 48-hour assay, 96-well format, strain 3D7 (parent), read-out: 3D7 (PARENT) Average EC50) it was 6.24; in the experiment with 3D7 (hypoxanthine 48-hour assay, 96-well format, strain 3D7-C9-WT (parent of PfATP4 Mut3), read-out: 3D7-C9-WT (PARENT) Average EC50) it was 6.32.
